This assay has as its system human MKN-45 tumor cells. Briefly: Incucyte Immune Cell Killing Assay, co-culture of human PBMC and NucLight red-labelled MKN-45 tumor cells. The assay is classed as cell-based. The following applies: 10 nM, 120-hour incubation, PBMC + MKN-45 co-culture. On the procedure: The conjugates according to the disclosure were subjected to pharmacological testing for determining their tumor cell killing activity via immune cell activation.
The below tests involving measuring the in vitro tumor cell killing activity of some compounds of the disclosure were carried out using Incucyte® Immune Cell Killing Assay consisting in co-culture of human peripheral blood mononuclear cells (PBMC) and NucLight red-labelled human MKN-45 tumor cells. This Immune Cell Killing Assay allows for direct, measurements of immune cell-mediated killing of MKN-45 tumor cells with the combination of real-time, automated analysis of tumor cell number.
MKN-45 (stomach tumor cell line, DSMZ Germany) were used as they present a very high expression of CEACAM5 (Antigen Binding Capacity ≈3.10E5 receptors per cell). To count living MKN-45 cells in real time without altering their function, MKN45 cells have been stained thanks to a lentiviral-based labeling reagent enabling expression of a nuclear-restricted red (Nuclight Red) fluorescent protein. […]
The plates were then placed in the Incucyte® live-cell analysis apparatus. The Incucyte® Cell-by-Cell Analysis module was used to quantify the number of NucLight red-labelled MKN-45 tumor cells over-time. […]

Consider CEACAM5_Tusamitamab-PEG24-R848, for which the “% of Immune cell-mediated killing activity” value is 57%.

The values are drawn from patent publication US20260152497A1, “MIDAZO[4,5-c]QUINOLINE-4-AMINE COMPOUNDS AND CONJUGATES THEREOF, THEIR PREPARATION, AND THEIR [sequence] APPLICATIONS” (SANOFI, priority 2021, published 2026).
